According to ChEMBL document CHEMBL3885861, “Open TG-GATES”:

Species on record: Rattus norvegicus
Experiment: Open TG-GATES - Regimen: Daily Repeat
Assay type: toxicity, organism-based, Sprague-Dawley
Parameters: regimen Daily Repeat, gender Male, age 6 weeks
Conditions: in vivo, po, route gavage; for APTT / Bas / Eos / Fbg / Hb / Ht / Lym / MCH / MCHC / MCV / Mono / Neu / PT / Plat / RBC / Ret / WBC: tissue Blood; for KIDNEY_L / KIDNEY_R / KIDNEY_TOTAL: tissue Kidney; for LIVER: tissue Liver; for A/G / ALP / ALT / AST / BUN / CRE / Ca / Cl / DBIL / GLC / IP / LDH / Na / PL / RALB / TBIL / TC / TG / TP / gamma-GTP: tissue Plasma
[1] = 0 mg/kg, 72 h, dose level Control, time 3 day
[2] = 0 mg/kg, […], dose level Control, time 7 day
[3] = 0 mg/kg, […], dose level Control, time 14 day
[4] = 0 mg/kg, […], dose level Control, time 28 day
[5] = 100 mg/kg, 72 h, dose level Low, time 3 day
[6] = 100 mg/kg, […], dose level Low, time 7 day
[7] = 100 mg/kg, […], dose level Low, time 14 day
[8] = 100 mg/kg, […], dose level Low, time 28 day

NC(N)=Nc1nc(CSCCC(N)=NS(N)(=O)=O)cs1 [FAMOTIDINE]
TERMINAL_BW [1]: 227 g
APTT [1]: 19.5 s
Bas [1]: 0%
Eos [1]: 1%
Fbg [1]: 221.4 mg/dL
Hb [1]: 13.5 g/dL
Ht [1]: 37.4%
Lym [1]: 73.8%
MCH [1]: 22.4 pg
MCHC [1]: 36.1%
MCV [1]: 61.9 fL
Mono [1]: 3.2%
Neu [1]: 20.6%
PT [1]: 11.8 s
Plat [1]: 125.1 x10_4/uL
RBC [1]: 604.6 x10_4/ul
Ret [1]: 5.7%
WBC [1]: 75.1 x10_2/uL
KIDNEY_L [1]: 1 g
KIDNEY_R [1]: 1 g
KIDNEY_TOTAL [1]: 2 g
LIVER [1]: 10.4 g
A/G [1]: 1.5
ALP [1]: 999.6 IU/L
ALT [1]: 31.4 IU/L
AST [1]: 64.2 IU/L
BUN [1]: 13.8 mg/dL
CRE [1]: 0.4 mg/dL
Ca [1]: 10.7 mg/dL
Cl [1]: 103.2 meq/L
DBIL [1]: 0.086 mg/dL
GLC [1]: 190.6 mg/dL
IP [1]: 7.2 mg/dL
LDH [1]: 194 IU/L
Na [1]: 139.8 meq/L
PL [1]: 139.6 mg/dL
RALB [1]: 3.4 g/dL
TBIL [1]: 0.1 mg/dL
TC [1]: 76.6 mg/dL
TG [1]: 78.4 mg/dL
TP [1]: 5.5 g/dL
gamma-GTP [1]: 1 IU/L
TERMINAL_BW [2]: 257.4 g
TERMINAL_BW [3]: 314.4 g
TERMINAL_BW [4]: 376 g
APTT [2]: 20.1 s
Bas [2]: 0%
Eos [2]: 0.8%
Fbg [2]: 230 mg/dL
Hb [2]: 13.7 g/dL
Ht [2]: 38.3%
Lym [2]: 80.4%
MCH [2]: 22.2 pg
MCHC [2]: 35.8%
MCV [2]: 62 fL
Mono [2]: 2.4%
Neu [2]: 14.8%
PT [2]: 11.8 s
Plat [2]: 126.2 x10_4/uL
RBC [2]: 618.2 x10_4/ul
Ret [2]: 5%
WBC [2]: 82.2 x10_2/uL
APTT [3]: 22.3 s
Bas [3]: 0%
Eos [3]: 1%
Fbg [3]: 229.4 mg/dL
Hb [3]: 14.3 g/dL
Ht [3]: 41.9%
Lym [3]: 81.8%
MCH [3]: 20.8 pg
MCHC [3]: 34.1%
MCV [3]: 60.9 fL
Mono [3]: 1.6%
Neu [3]: 14.2%
PT [3]: 12.3 s
Plat [3]: 118.4 x10_4/uL
RBC [3]: 689 x10_4/ul
Ret [3]: 4.5%
WBC [3]: 112.3 x10_2/uL
APTT [4]: 21.3 s
Bas [4]: 0%
Eos [4]: 1%
Fbg [4]: 233.6 mg/dL
Hb [4]: 15.4 g/dL
Ht [4]: 43.5%
Lym [4]: 80.8%
MCH [4]: 20 pg
MCHC [4]: 35.3%
MCV [4]: 56.6 fL
Mono [4]: 2.2%
Neu [4]: 14.6%
PT [4]: 12.2 s
Plat [4]: 98.4 x10_4/uL
RBC [4]: 769 x10_4/ul
Ret [4]: 2.3%
WBC [4]: 84.1 x10_2/uL
KIDNEY_L [2]: 1.1 g
KIDNEY_R [2]: 1.1 g
KIDNEY_TOTAL [2]: 2.2 g
KIDNEY_L [3]: 1.3 g
KIDNEY_R [3]: 1.2 g
KIDNEY_TOTAL [3]: 2.5 g
KIDNEY_L [4]: 1.4 g
KIDNEY_R [4]: 1.4 g
KIDNEY_TOTAL [4]: 2.8 g
LIVER [2]: 12.2 g
LIVER [3]: 14 g
LIVER [4]: 15.1 g
A/G [2]: 1.5
ALP [2]: 1109 IU/L
ALT [2]: 39.6 IU/L
AST [2]: 71.4 IU/L
BUN [2]: 16.6 mg/dL
CRE [2]: 0.4 mg/dL
Ca [2]: 10.7 mg/dL
Cl [2]: 102.8 meq/L
DBIL [2]: 0.094 mg/dL
GLC [2]: 200.6 mg/dL
IP [2]: 7.5 mg/dL
LDH [2]: 176.2 IU/L
Na [2]: 140.6 meq/L
PL [2]: 156.6 mg/dL
RALB [2]: 3.5 g/dL
TBIL [2]: 0.2 mg/dL
TC [2]: 78 mg/dL
TG [2]: 101.8 mg/dL
TP [2]: 5.7 g/dL
gamma-GTP [2]: 0.8 IU/L
A/G [3]: 1.5
ALP [3]: 794.6 IU/L
ALT [3]: 33.4 IU/L
AST [3]: 62 IU/L
BUN [3]: 15.8 mg/dL
CRE [3]: 0.5 mg/dL
Ca [3]: 10.8 mg/dL
Cl [3]: 103.2 meq/L
DBIL [3]: 0.096 mg/dL
GLC [3]: 208 mg/dL
IP [3]: 7.2 mg/dL
LDH [3]: 153.2 IU/L
Na [3]: 140.4 meq/L
PL [3]: 146.6 mg/dL
RALB [3]: 3.4 g/dL
TBIL [3]: 0.2 mg/dL
TC [3]: 75 mg/dL
TG [3]: 96.4 mg/dL
TP [3]: 5.7 g/dL
gamma-GTP [3]: 1.4 IU/L
A/G [4]: 1.3
ALP [4]: 664.6 IU/L
ALT [4]: 32.4 IU/L
AST [4]: 59 IU/L
BUN [4]: 18.6 mg/dL
CRE [4]: 0.6 mg/dL
Ca [4]: 10.2 mg/dL
Cl [4]: 103.6 meq/L
DBIL [4]: 0.07 mg/dL
GLC [4]: 217.4 mg/dL
IP [4]: 6.7 mg/dL
LDH [4]: 123 IU/L
Na [4]: 141 meq/L
PL [4]: 141.8 mg/dL
RALB [4]: 3.5 g/dL
TBIL [4]: 0.1 mg/dL
TC [4]: 74.6 mg/dL
TG [4]: 82.8 mg/dL
TP [4]: 6.1 g/dL
gamma-GTP [4]: 1 IU/L
TERMINAL_BW [5]: 224.5 g
APTT [5]: 19.8 s
Bas [5]: 0%
Eos [5]: 1%
Fbg [5]: 225.2 mg/dL
Hb [5]: 13.3 g/dL
Ht [5]: 37.3%
Lym [5]: 78.4%
MCH [5]: 22.1 pg
MCHC [5]: 35.6%
MCV [5]: 62.1 fL
Mono [5]: 2.6%
Neu [5]: 15.6%
PT [5]: 12 s
Plat [5]: 124.1 x10_4/uL
RBC [5]: 600.6 x10_4/ul
Ret [5]: 5.7%
WBC [5]: 87.5 x10_2/uL
KIDNEY_L [5]: 1 g
KIDNEY_R [5]: 1 g
KIDNEY_TOTAL [5]: 2 g
LIVER [5]: 10.2 g
A/G [5]: 1.6
ALP [5]: 1126.4 IU/L
ALT [5]: 30.2 IU/L
AST [5]: 63.6 IU/L
BUN [5]: 16.6 mg/dL
CRE [5]: 0.4 mg/dL
Ca [5]: 10.7 mg/dL
Cl [5]: 102.8 meq/L
DBIL [5]: 0.086 mg/dL
GLC [5]: 190.4 mg/dL
IP [5]: 7.2 mg/dL
LDH [5]: 190.6 IU/L
Na [5]: 139 meq/L
PL [5]: 136.8 mg/dL
RALB [5]: 3.3 g/dL
TBIL [5]: 0.1 mg/dL
TC [5]: 73.8 mg/dL
TG [5]: 63.2 mg/dL
TP [5]: 5.5 g/dL
gamma-GTP [5]: 1.2 IU/L
TERMINAL_BW [6]: 259.3 g
TERMINAL_BW [7]: 310.4 g
TERMINAL_BW [8]: 389.2 g
APTT [6]: 20.9 s
Bas [6]: 0%
Eos [6]: 1%
Fbg [6]: 217.6 mg/dL
Hb [6]: 13.5 g/dL
Ht [6]: 37.6%
Lym [6]: 78.6%
MCH [6]: 22 pg
MCHC [6]: 35.9%
MCV [6]: 61.5 fL
Mono [6]: 2.8%
Neu [6]: 16.4%
PT [6]: 12.1 s
Plat [6]: 116.2 x10_4/uL
RBC [6]: 612 x10_4/ul
Ret [6]: 5.2%
WBC [6]: 95.1 x10_2/uL
APTT [7]: 22.2 s
Bas [7]: 0%
Eos [7]: 0.6%
Fbg [7]: 217.4 mg/dL
Hb [7]: 14.4 g/dL
Ht [7]: 41.5%
Lym [7]: 77.4%
MCH [7]: 20.9 pg
MCHC [7]: 34.8%
MCV [7]: 60 fL
Mono [7]: 2.4%
Neu [7]: 17.8%
PT [7]: 12.6 s
Plat [7]: 111.6 x10_4/uL
RBC [7]: 691.8 x10_4/ul
Ret [7]: 4%
WBC [7]: 94.5 x10_2/uL
APTT [8]: 21.5 s
Bas [8]: 0%
Eos [8]: 1.6%
Fbg [8]: 219.4 mg/dL
Hb [8]: 15.5 g/dL
Ht [8]: 43.7%
Lym [8]: 81.2%
MCH [8]: 19.4 pg
MCHC [8]: 35.5%
MCV [8]: 54.9 fL
Mono [8]: 1.6%
Neu [8]: 14.2%
PT [8]: 12.8 s
Plat [8]: 96.6 x10_4/uL
RBC [8]: 796 x10_4/ul
Ret [8]: 2.2%
WBC [8]: 90.2 x10_2/uL
KIDNEY_L [6]: 1.1 g
KIDNEY_R [6]: 1.1 g
KIDNEY_TOTAL [6]: 2.2 g
KIDNEY_L [7]: 1.2 g
KIDNEY_R [7]: 1.2 g
KIDNEY_TOTAL [7]: 2.5 g
KIDNEY_L [8]: 1.3 g
KIDNEY_R [8]: 1.4 g
KIDNEY_TOTAL [8]: 2.7 g
LIVER [6]: 12.4 g
LIVER [7]: 13.4 g
LIVER [8]: 15.7 g
A/G [6]: 1.5
ALP [6]: 940.8 IU/L
ALT [6]: 30.4 IU/L
AST [6]: 67 IU/L
BUN [6]: 16.4 mg/dL
CRE [6]: 0.4 mg/dL
Ca [6]: 10.7 mg/dL
Cl [6]: 103 meq/L
DBIL [6]: 0.098 mg/dL
GLC [6]: 182.8 mg/dL
IP [6]: 7 mg/dL
LDH [6]: 205.2 IU/L
Na [6]: 140.8 meq/L
PL [6]: 151 mg/dL
RALB [6]: 3.4 g/dL
TBIL [6]: 0.2 mg/dL
TC [6]: 78.6 mg/dL
TG [6]: 98.2 mg/dL
TP [6]: 5.6 g/dL
gamma-GTP [6]: 1.2 IU/L
A/G [7]: 1.5
ALP [7]: 918.4 IU/L
ALT [7]: 38 IU/L
AST [7]: 64.4 IU/L
BUN [7]: 15.2 mg/dL
CRE [7]: 0.5 mg/dL
Ca [7]: 10.5 mg/dL
Cl [7]: 104 meq/L
DBIL [7]: 0.096 mg/dL
GLC [7]: 196.2 mg/dL
IP [7]: 7 mg/dL
LDH [7]: 181 IU/L
Na [7]: 140.6 meq/L
PL [7]: 141.2 mg/dL
RALB [7]: 3.3 g/dL
TBIL [7]: 0.2 mg/dL
TC [7]: 67 mg/dL
TG [7]: 111.4 mg/dL
TP [7]: 5.6 g/dL
gamma-GTP [7]: 1.6 IU/L
A/G [8]: 1.3
ALP [8]: 577.4 IU/L
ALT [8]: 31.8 IU/L
AST [8]: 59.6 IU/L
BUN [8]: 15.8 mg/dL
CRE [8]: 0.6 mg/dL
Ca [8]: 9.9 mg/dL
Cl [8]: 103.4 meq/L
DBIL [8]: 0.074 mg/dL
GLC [8]: 241.8 mg/dL
IP [8]: 7.1 mg/dL
LDH [8]: 132.8 IU/L
Na [8]: 140.8 meq/L
PL [8]: 121.2 mg/dL
RALB [8]: 3.3 g/dL
TBIL [8]: 0.1 mg/dL
TC [8]: 57.8 mg/dL
TG [8]: 91 mg/dL
TP [8]: 5.9 g/dL
gamma-GTP [8]: 1.2 IU/L
